The text below walks through data of patent US7531545B2, “2-amino-3,4-dihydro-pyrido[3,4-d]pyrimidine derivatives useful as inhibitors of β-secretase (BACE)” (Janssen Pharmaceutica, N.V., priority 2005, dated 2009).

pIC50, pKi: −log10 of the molar value. “And” between values parts separate entries of the source, which are not always exact repeats. Equal entries are not always repeated.

One may read the inhibition as the change of the read-out against control, counted positive when it falls. For orientation: pKi means the negative decadic logarithm of the Ki, by convention in mol/L. As usually defined, the pIC50 is the IC50 on a negative log10 scale, so that one unit is a factor of ten.

One test has as its target T1, β-secretase (BACE) (Homo sapiens, UniProt P56817).
T1 construct: purchased Panvera
Description: BACE FS1 Assay (% Inhibition and Ki). It is filed as biochemical. The settings on record: FS1 substrate; for inhibition at 0.3 µM: 0.3 μM test compound, read-out: % Inhibition (FS) @ 0.3 μM; for inhibition at 1 µM: 1 μM test compound, read-out: % Inhibition (FS) @ 1 μM; for inhibition at 3 µM: 3 μM test compound, read-out: % Inhibition (FS) @ 3 μM. As for the experimental part: BACE FS1 Assay (% Inhibition and Ki)
The following reagents were used in this assay: sodium acetate, PEG8000 (Sigma), DMSO, HEPES, FS1 substrate [R(AedensE)[…]-(DabcylK)R], β-secretase (BACE) (Panvera), and 96-well plate (HE microplate, Molecular Devices).
The following assay buffers were prepared and used in this assay: (1) enzyme assay buffer (0.05 M sodium acetate, pH5, 0.1% PEG8000 (w/v)), (2) substrate assay buffer (0.05 M sodium acetate, pH5), and (3) compound vehicle (30% DMSO in 50 mM HEPES, pH 7.4).
The FS1-substrate stock solution was prepared in DMSO as a 10 mg/mL solution. The FS1-substrate working solution was prepared by diluting the 10 mg/mL stock solution with substrate assay buffer to a final concentration of 300 μg/mL. The β-secretase (BACE) working solution was prepared by diluting a 0.83 mg/mL BACE stock solution with enzyme assay buffer to a final concentration of 4 μg/mL.
Test compounds were dissolved in DMSO to 10 mM. Compounds were further diluted in vehicle to various concentrations in the range of 405 μM to 4.05 μM (13.5× final compound concentration in screening plate).
The screening procedure for this assay was as follows: 15 μL of BACE working solution was pipetted into each well of a 96-well plate. To each well was then pipetted 2 μL of test compound at the selected concentration. Test compound and BACE were then mixed with a pipettor and incubated for 20 min at room temperature. To each well was then added 10 μL of the FS1 substrate working solution. The plates were then incubated for 1 hour at room temperature. The fluorescence for each well was then measured on an LJL analyst (Ex 360 nm/Em 530 nm).
The procedure for the blank was as follows. 15 μL of assay buffer was pipetted into each well to be used as a blank control. To each well was then added 2 μL of vehicle and […] of FS1-substrate working solution. The plates were then incubated for 1 hour at room temperature. The fluorescence was measured on an LJL analyst (Ex 360 nm/Em 530 nm).
The procedure for the positive control was as follows: 15 μL of BACE working solution was pipetted into each well to be used as a positive control. To each well was then pipetted 2 μL of vehicle. Vehicle and BACE were then mixed with a pipettor and incubated for 20 min at room temperature. To each well was then added 10 μL of the FS1 substrate working solution. The plates were then incubated for 1 hour at room temperature. The fluorescence (F1) was then measured on an LJL analyst (Ex 360 nm/Em 530 nm).
For test compounds, % inhibition was determined at each concentration as follows:
% Inhibition values of less than 30% were indistinguishable from control are listed as ≦30% in Table 18, below.
For test compounds, measured at multiple concentrations, the measured T0 and T60 values were used to calculate an IC50 value using Graphpad Software (or PIR). Ki inhibition was determined as follows: For each compound concentration and positive control, rate of cleavage of substrate (Vi, where i=compound concentration in μM) was determined as Δ Fluorescence/Δ time (min). Cleavage rates (Vi) were plotted as a function of inhibitor concentration in μM [I]. […]

In a further test the target is human BACE-1 (Homo sapiens, UniProt P56817). Briefly: CEREP BACE Inhibition Assay. It is filed as biochemical. Particulars: recombinant enzyme. Put shortly: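 Recombinant human BACE-1 (0.25 μg) was assayed in 0.09 M sodium acetate pH 4.5, with activity followed fluorimetrically as formation of Mca-S-E-V-N-L[…] from peptide substrate. Compound autofluorescence was checked at the detection wavelengths. Basal signal was taken from wells without substrate.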
Chain of human BACE-1 (P56817 46-501): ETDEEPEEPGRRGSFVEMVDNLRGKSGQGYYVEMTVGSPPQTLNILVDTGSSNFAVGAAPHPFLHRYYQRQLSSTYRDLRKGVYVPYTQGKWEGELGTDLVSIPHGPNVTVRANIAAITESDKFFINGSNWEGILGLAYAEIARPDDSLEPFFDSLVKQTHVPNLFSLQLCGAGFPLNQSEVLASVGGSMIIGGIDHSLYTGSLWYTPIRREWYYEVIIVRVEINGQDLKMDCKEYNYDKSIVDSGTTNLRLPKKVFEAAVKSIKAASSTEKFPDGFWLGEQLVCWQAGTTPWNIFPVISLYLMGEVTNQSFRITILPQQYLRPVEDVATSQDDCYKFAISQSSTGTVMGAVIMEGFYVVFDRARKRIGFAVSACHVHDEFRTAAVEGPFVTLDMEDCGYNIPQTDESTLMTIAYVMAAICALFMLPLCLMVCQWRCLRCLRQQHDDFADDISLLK

Where [1] appears, read: 0.3 μM, percent inhibition of the control activity.

T1 sequence (P56817 46-501): as above

As for `NC1=Nc2cnc(Oc3ccccc3)cc2CN1[C@@H](CCC(=O)N(CCO)C1CCCCC1)C1CCCCC1` [Compound 7, 4-(2-Amino-6-phenoxy-4H-pyrido[3,4-d]pyrimidin-3-yl)-4S,N-dicyclohexyl-N-(2-hydroxy-ethyl)-butyramide], at β-secretase (BACE), the inhibition at 0.3 µM turned out to be 136%, the inhibition at 1 µM came to 136%, the inhibition at 3 µM turned out to be 134% and the pKi was 8.00. Besides, on human BACE-1 (setting [1]), the “% Inhibition @ 0.3 μM” value was 95% and 100%; the inhibition at 0.3 µM came out at 91%. On human BACE-1 (read-out: IC50), the pIC50 was 6.85 and 6.82.

Regarding `NC1=Nc2cnc(Oc3ccccc3)cc2CN1[C@@H](CCC(=O)N(CCOCc1ccccc1)[C@H]1CC[C@@H](C(=O)O)CC1)C1CCOCC1` [Compound 39, 4-[[4-(2-Amino-6-phenoxy-4H-pyrido[3,4-d]pyrimidin-3-yl)-4-(S)-(tetrahydro-pyran-4-yl)-butyryl]-(2-benzyloxy-ethyl)-amino]-cyclohexanecarboxylic acid], at β-secretase (BACE), the inhibition at 0.3 µM stood at 112%, the inhibition at 1 µM was found to be 110%, the inhibition at 3 µM was determined as 115% and the pKi is 7.89.

In the case of `CC(C)[C@H](CCC(=O)N(CCO)C(C)C)N1Cc2cc(Oc3ccccc3)ncc2N=C1N` [Compound 21], at β-secretase (BACE), the inhibition at 0.3 µM came out at 51%, the inhibition at 1 µM was 83%, the inhibition at 3 µM was 97% and the pKi is 7.13.

For the compound `CC(C)[C@H](CCC(=O)N(C)[C@H]1CC[C@@H](C(=O)O)CC1)N1Cc2cc(Oc3ccccc3)ncc2N=C1N` [Compound 43], on β-secretase (BACE), the inhibition at 0.3 µM turned out to be 110%, the inhibition at 1 µM came out at 107%, the inhibition at 3 µM turned out to be 115% and the pKi was 7.80.

`CC(C)[C@H](CCC(=O)N[C@H](CO)C(=O)O)N1Cc2cc(Oc3ccccc3)ncc2N=C1N` [Compound 30]: on β-secretase (BACE), the inhibition at 0.3 µM was 91%, the inhibition at 1 µM turned out to be 106%, the inhibition at 3 µM worked out at 117% and the pKi is 7.01.

In the case of `CC(C)[C@H](CCC(=O)N(C)CCC(=O)O)N1Cc2cc(Oc3ccccc3)ncc2N=C1N` [Compound 16], on β-secretase (BACE), the inhibition at 0.3 µM is 12%, the inhibition at 1 µM was 51%, the inhibition at 3 µM turned out to be 80% and the pKi is 5.96.
